According to patent US10294228B2, “Breathing control modulating compounds, and methods of making and using same” (NEURAD LTD., priority 2015, dated 2019):
Structures can show the parent of a compound that is named as a salt. Values belong to the molecule of their own block, whether it stands above or below them.

Legend:
[1] = Polymorphic transformation by exposure to humidity; assay type: physicochemical; conditions: >80% humidity, three days, ambient temperature; confirmed by XRPD and DSC
Experimental: Approximately 10 mg of the solid as its initially obtained polymorphic form were placed in a 4 mL open vial. In a 20 mL vial, about 5 mL of distilled water were added and heated to about 50° C., then the vial was capped, and the contents were cooled for about 30 minutes at ambient temperature. Then the 20 mL vial was uncapped, the smaller vial was placed inside the bigger vial, the bigger vial was recapped, and the sample in the smaller vial was exposed and aged in an environment of approximately 80-95% relative humidity at ambient temperature for 3 days. Polymorphic transformation was confirmed by XRPD and DSC vs. that for the initially obtained polymorphic form.

anesthetized rats = assay: Anesthetized rat spirometry screening assay (ventilatory activity, minute volume); assay type: in vivo; conditions: increase in minute volume (VE); for change in vivo at 0.3 mg/kg: 0.3 mg/kg IV bolus, read-out: VE % Inc @ 0.3 mg/kg IV; for change in vivo at 3 mg/kg: 3.0 mg/kg IV bolus, read-out: VE % Inc @ 3.0 mg/kg IV
Outline: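 Urethane-anesthetized (1.5 g/kg i.v.) rats with tracheal cannula to pneumotachometer; minute volume derived from respiratory rate × tidal volume. Compounds given as i.v. bolus at 0.1 and/or 0.3 and/or 3 mg/kg, monitored at least 6 min; data as 30 s averages.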

polymorphic transformation on exposure to humidity [1]: converted to form Tos-B (31h-2)
Compound: CCCNc1nc(NC)nc2c(NCC(C)(C)O)nc(NC)nc12 [Compound 31h-1, 1-(2,6-Bis-methylamino-8-propylamino-pyrimido[5,4-d]pyrimidin-4-ylamino)-2-methyl-propan-2-ol]

Compound: CCCNc1nc(NC)nc2c(N[C@H]3c4ccccc4C[C@H]3O)nc(NC)nc12 [Compound 79, (1S,2R)-1-(2,6-Bis-methylamino-8-propylamino-pyrimido[5,4-d]pyrimidin-4-ylamino)-indan-2-ol]
change in vivo at 0.3 mg/kg (anesthetized rats): 56% | change in vivo at 3 mg/kg (anesthetized rats): 162%

Compound: CCCNc1nc(NCC)c2nc(NCC(C)(C)O)nc(NCC)c2n1 [Compound 163, 1-(4,8-Bis-ethylamino-6-propylamino-pyrimido[5,4-d]pyrimidin-2-ylamino)-2-methyl-propan-2-ol]
change in vivo at 0.3 mg/kg (anesthetized rats): 88% | change in vivo at 3 mg/kg (anesthetized rats): 144%

Compound: CCCNc1nc(NC)nc2c(N(C)CC(C)(C)O)nc(NC)nc12 [Compound 76, 1-[(2,6-Bis-methylamino-8-propylamino-pyrimido[5,4-d]pyrimidin-4-yl)-methyl-amino]-2-methyl-propan-2-ol]
change in vivo at 0.3 mg/kg (anesthetized rats): 37% | change in vivo at 3 mg/kg (anesthetized rats): 71%

Compound: CCNc1nc(NC)nc2c(NCCCO)nc(NC)nc12 [Compound 67a, 3-(8-Ethylamino-2,6-bis-methylamino-pyrimido[5,4-d]-pyrimidin-4-ylamino)-propan-1-ol Hydrochloride]
change in vivo at 0.3 mg/kg (anesthetized rats): 7% | change in vivo at 3 mg/kg (anesthetized rats): 136%

Compound: CNc1nc(NCCOC)c2nc(NC)nc(NCCO)c2n1 [Compound 56a, 2-[8-(2-Methoxy-ethylamino)-2,6-bis-methylamino-pyrimido[5,4-d]pyrimidin-4-ylamino]-ethanol Hydrochloride]
change in vivo at 0.3 mg/kg (anesthetized rats): 2%

Compound: CCC(O)CNc1nc(NC)c2nc(NCC3CC3)nc(NC)c2n1 (stereo not drawn) [Compound 146, 1-[6-(Cyclopropylmethyl-amino)-4,8-bis-methylamino-pyrimido[5,4-d]pyrimidin-2-ylamino]-butan-2-ol]
change in vivo at 0.3 mg/kg (anesthetized rats): 9% | change in vivo at 3 mg/kg (anesthetized rats): 121%

Compound: CCCNc1nc(NC)nc2c(NCC3(O)CCC3)nc(NC)nc12 [Compound 72a, 1-[(2,6-Bis-methylamino-8-propylamino-pyrimido[5,4-d]pyrimidin-4-ylamino)-methyl]-cyclobutanol Hydrochloride]
change in vivo at 0.3 mg/kg (anesthetized rats): 132% | change in vivo at 3 mg/kg (anesthetized rats): 150%

Compound: CCCNc1nc(NC)nc2c(NC3Cc4ccccc4C3O)nc(NC)nc12 (racemic) [Compound 81, 2-(2,6-Bis-methylamino-8-propylamino-pyrimido[5,4-d]-pyrimidin-4-ylamino)-indan-1-ol]
change in vivo at 0.3 mg/kg (anesthetized rats): 50% | change in vivo at 3 mg/kg (anesthetized rats): 72%

Compound: CCCNc1nc(NC)c2nc(N[C@H]3CCCC[C@H]3O)nc(NC)c2n1 [Compound 131, (1R,2S)-2-(4,8-Bis-methylamino-6-propylamino-pyrimido[5,4-d]pyrimidin-2-ylamino)-cyclohexanol]
change in vivo at 0.3 mg/kg (anesthetized rats): 18% | change in vivo at 3 mg/kg (anesthetized rats): 142%

Compound: CCCNc1nc(NC)c2nc(N[C@H]3c4ccccc4C[C@H]3O)nc(NC)c2n1 [Compound 127, (1S,2R)-1-(4,8-Bis-methylamino-6-propylamino-pyrimido[5,4-d]-pyrimidin-2-ylamino)-indan-2-ol]
change in vivo at 0.3 mg/kg (anesthetized rats): 81% | change in vivo at 3 mg/kg (anesthetized rats): 108%

Compound: CCCNc1nc(NC)nc2c(NCCCO)nc(NC)nc12 [Compound 8a, 3-(2,6-Bis-methylamino-8-propylamino-pyrimido[5,4-d]pyrimidin-4-ylamino)-propan-1-ol hydrochloride]
change in vivo at 0.3 mg/kg (anesthetized rats): 31%

Compound: CCNc1nc(NC[C@H](C)O)nc2c(NCC)nc(N)nc12 [Compound 172, (S)-1-(6-Amino-4,8-bis-ethylamino-pyrimido[5,4-d]-pyrimidin-2-ylamino)-propan-2-ol]
change in vivo at 0.3 mg/kg (anesthetized rats): 5% | change in vivo at 3 mg/kg (anesthetized rats): 155%

Compound: C=CCNc1nc(NC)c2nc(N(C)C[C@H](C)O)nc(NC)c2n1 [Compound 156, (S)-1-[(6-Allylamino-4,8-bis-methylamino-pyrimido[5,4-d]pyrimidin-2-yl)-methyl-amino]-propan-2-ol]
change in vivo at 0.3 mg/kg (anesthetized rats): 16% | change in vivo at 3 mg/kg (anesthetized rats): 97%

Compound: CCCNc1nc(NC)c2nc(NCCO)nc(NC)c2n1 [Compound 91, 2-(4,8-Bis-methylamino-6-propylamino-pyrimido[5,4-d]pyrimidin-2-ylamino)-ethanol]
change in vivo at 0.3 mg/kg (anesthetized rats): 16%

Compound: CCCNc1nc(NC)nc2c(N[C@@H]3CCCC[C@H]3O)nc(NC)nc12 [Compound 85, (1R,2R)-2-(2,6-Bis-methylamino-8-propylamino-pyrimido[5,4-d]pyrimidin-4-ylamino)-cyclohexanol]
change in vivo at 0.3 mg/kg (anesthetized rats): 69% | change in vivo at 3 mg/kg (anesthetized rats): 83%

Compound: C=CCNc1nc(NC)c2nc(N(CCC)C[C@H](C)O)nc(NC)c2n1 [Compound 155, (S)-1-[(6-Allylamino-4,8-bis-methylamino-pyrimido[5,4-d]-pyrimidin-2-yl)-propyl-amino]-propan-2-ol]
change in vivo at 0.3 mg/kg (anesthetized rats): 14% | change in vivo at 3 mg/kg (anesthetized rats): 79%

Compound: CCCNc1nc(NC)nc2c(N[C@H]3CCC[C@@H]3O)nc(NC)nc12 [Compound 86, (1S,2S)-2-(2,6-Bis-methylamino-8-propylamino-pyrimido[5,4-d]pyrimidin-4-ylamino)-cyclopentanol]
change in vivo at 0.3 mg/kg (anesthetized rats): 26% | change in vivo at 3 mg/kg (anesthetized rats): 92%

Compound: CC[C@@H](C)Nc1nc(NC)nc2c(NCC(C)(C)O)nc(NC)nc12 [Compound 40a, 1-[8-((R)-sec-Butylamino)-2,6-bis-methylamino-pyrimido[5,4-d]-pyrimidin-4-ylamino]-2-methyl-propan-2-ol Hydrochloride]
change in vivo at 0.3 mg/kg (anesthetized rats): 79% | change in vivo at 3 mg/kg (anesthetized rats): 158%

Compound: CCCNc1nc(NC)nc2c(N[C@H](C)CO)nc(NC)nc12 [Compound 20a, (R)-2-(2,6-Bis-methylamino-8-propylamino-pyrimido[5,4-d]-pyrimidin-4-ylamino)-propan-1-ol Hydrochloride]
change in vivo at 0.3 mg/kg (anesthetized rats): 107%

Compound: CCCNc1nc(NCC)nc2c(NCCO)nc(NCC)nc12 [Compound 27a, 2-(2,6-Bis-ethylamino-8-propylamino-pyrimido[5,4-d]pyrimidin-4-ylamino)-ethanol Hydrochloride]
change in vivo at 0.3 mg/kg (anesthetized rats): 110%

Compound: CCCNc1nc(NC)nc2c(N[C@H]3c4ccccc4C[C@@H]3O)nc(NC)nc12 [Compound 78, (1S,2S)-1-(2,6-Bis-methylamino-8-propylamino-pyrimido[5,4-d]-pyrimidin-4-ylamino)-indan-2-ol]
change in vivo at 0.3 mg/kg (anesthetized rats): 173% | change in vivo at 3 mg/kg (anesthetized rats): 180%

Compound: CCCNc1nc(NC)nc2c(N[C@@H]3c4ccccc4C[C@@H]3O)nc(NC)nc12 [Compound 77, (1R,2S)-1-(2,6-Bis-methylamino-8-propylamino-pyrimido[5,4-d]-pyrimidin-4-ylamino)-indan-2-ol]
change in vivo at 0.3 mg/kg (anesthetized rats): 135% | change in vivo at 3 mg/kg (anesthetized rats): 170%

Compound: CNc1nc(NCC(C)(C)O)c2nc(NC)nc(NCC(F)F)c2n1 [Compound 36a, 1-[8-(2,2-Difluoro-ethylamino)-2,6-bis-methylamino-pyrimido[5,4-d]pyrimidin-4-ylamino]-2-methyl-propan-2-ol Hydrochloride]
change in vivo at 0.3 mg/kg (anesthetized rats): 34%

Compound: CCCNc1nc(NC)c2nc(N[C@@H]3c4ccccc4C[C@@H]3O)nc(NC)c2n1 [Compound 123, (1R,2S)-1-(4,8-Bis-methylamino-6-propylamino-pyrimido[5,4-d]-pyrimidin-2-ylamino)-indan-2-ol]
change in vivo at 0.3 mg/kg (anesthetized rats): 11% | change in vivo at 3 mg/kg (anesthetized rats): 129%

Compound: CC[C@H](C)Nc1nc(NC)c2nc(NC[C@@H](C)O)nc(NC)c2n1 [Compound 104, (R)-1-[6-((S)-sec-Butylamino)-4,8-bis-methylamino-pyrimido[5,4-d]pyrimidin-2-ylamino]-propan-2-ol]
change in vivo at 0.3 mg/kg (anesthetized rats): 33% | change in vivo at 3 mg/kg (anesthetized rats): 98%

Compound: CC[C@@H](C)Nc1nc(NC)c2nc(NCC(C)(C)O)nc(NC)c2n1 [Compound 99, 1-[6-((R)-sec-Butylamino)-4,8-bis-methylamino-pyrimido[5,4-d]-pyrimidin-2-ylamino]-2-methyl-propan-2-ol]
change in vivo at 0.3 mg/kg (anesthetized rats): 25% | change in vivo at 3 mg/kg (anesthetized rats): 61%

Compound: CC[C@H](C)Nc1nc(NC)c2nc(NC[C@H](C)O)nc(NC)c2n1 [Compound 105, (S)-1-[6-((S)-sec-Butylamino)-4,8-bis-methylamino-pyrimido[5,4-d]pyrimidin-2-ylamino]-propan-2-ol]
change in vivo at 0.3 mg/kg (anesthetized rats): 14% | change in vivo at 3 mg/kg (anesthetized rats): 120%

Compound: CCCNc1nc(NC)nc2c(NCC(O)CO)nc(NC)nc12 (stereo not drawn) [Compound 75a, 3-(2,6-Bis-methylamino-8-propylamino-pyrimido[5,4-d]pyrimidin-4-ylamino)-propane-1,2-diol Hydrochloride]
change in vivo at 0.3 mg/kg (anesthetized rats): 158% | change in vivo at 3 mg/kg (anesthetized rats): 180%

Compound: CCCNc1nc(NC)c2nc(N[C@@H]3CCCC[C@@H]3O)nc(NC)c2n1 [Compound 135, (1S,2R)-2-(4,8-Bis-methylamino-6-propylamino-pyrimido[5,4-d]pyrimidin-2-ylamino)-cyclohexanol]
change in vivo at 0.3 mg/kg (anesthetized rats): 22% | change in vivo at 3 mg/kg (anesthetized rats): 142%

Compound: CCCNc1nc(NC)c2nc(N[C@@H]3CCCC[C@H]3O)nc(NC)c2n1 [Compound 137, (1R,2R)-2-(4,8-Bis-methylamino-6-propylamino-pyrimido[5,4-d]pyrimidin-2-ylamino)-cyclohexanol]
change in vivo at 0.3 mg/kg (anesthetized rats): 22% | change in vivo at 3 mg/kg (anesthetized rats): 103%

Compound: CC[C@H](C)Nc1nc(NC)c2nc(NCC(C)(C)O)nc(NC)c2n1 [Compound 103, 1-[6-((S)-sec-Butylamino)-4,8-bis-methylamino-pyrimido[5,4-d]-pyrimidin-2-ylamino]-2-methyl-propan-2-ol]
change in vivo at 0.3 mg/kg (anesthetized rats): 5% | change in vivo at 3 mg/kg (anesthetized rats): 99%
